Experimental data from US4505916A, “Method for the treatment of psychoneurotic states by administration of derivatives of 2-(4-piperidyl)-1-(4-quinolyl)-ethanone” (Pharmindustrie, priority 1979, dated 1985).
pKd, pKi: −log10 of the molar value.

Target: cerebral receiving sites of the benzodiazepines
Experiment: Displacement of tritiated Diazepam from its binding site (method of MOHLER et al.)
Design: species or system rat
Settings: displacement of tritiated Diazepam (3H Diazepam) from its binding site
Protocol: The medicaments of the class of benzodiazepines are used as anticonvulsivants, as hypnotics and for the treatment of states of anxiety and of various psychoneurotic states for treatment of warm blooded mammals. The presence of specific receptors of the benzodiazepines in the membranes of the rat's brain has been shown [SQUIRES et al., Nature, 266, (1977), 732] and the degree of affinity of the benzodiazepines for these receptors, which is measured by their aptitude for displacing the tritiated Diazepam from its binding sites, is in good correlation with the pharmacodynamic effects observed on the animal and on man.
I--AFFINITY FOR THE CEREBRAL RECEIVING SITES OF THE BENZODIAZEPINES
The products have been tested according to the method of MOHLER et al, Life Science, 1977, 20, 2101, which is relied on herein.

Structure (SMILES) | pKi
COc1ccc2nc(-c3ccccc3)cc(CCC3CCNCC3)c2c1 [Example 25, 6-methoxy-2-phenyl-4-[2-(4-piperidyl)-ethyl]-quinoline] | 4.96
CN1CCC(CCc2cc(-c3ccccc3)nc3ccccc23)CC1 [Example 23, 4-[2-(1-METHYL-4-PIPERIDYL)-ETHYL]-2-PHENYL-QUINOLINE] | 7.00
O=C(CC1CCNCC1)c1cc(-c2ccc(F)cc2)nc2ccccc12 [Example 6, 1-[2-(4-fluoro-phenyl)-4-quinolyl]-2-(4-piperidyl)-ethanone] | 5.10
O=C(CC1CCNCC1)c1cc(-c2ccccc2)nc2ccccc12 [Example 5, 1-(2-phenyl-4-quinolyl)-2-(4-piperidyl)-ethanone] | 6.30
C=C[C@H]1CNCC[C@H]1CCc1ccnc2ccc(OC)cc12 [Example 14, 6-METHOXY-4-{2-[3(R)-ETHENYL-4(R)-PIPERIDYL]-ETHYL}-QUINOLINE] | 5.30
Cc1ccc(-c2cc(CCC3CCNCC3)c3ccccc3n2)cc1 [Example 19, 2-(4-METHYL-PHENYL)-4-[2-(4-PIPERIDYL)-ETHYL]-QUINOLINE] | 6.22
COc1ccc(-c2cc(CCC3CCNCC3)c3ccccc3n2)cc1 [Example 18, 2-(4-METHOXY-PHENYL)-4-[2-(4-PIPERIDYL)-ETHYL]-QUINOLINE] | 5.89
c1ccc2c(CCC3CCNCC3)ccnc2c1 [Example 24, 4-[2-(4-piperidyl)-ethyl]-quinoline] | 4.89
C=C[C@H]1CNCC[C@H]1CC(=O)c1cc(-c2ccccc2)nc2ccccc12 [Example 11, 2-[3(R)-ethenyl-4(S)-piperidyl]-1-(2-phenyl-4-quinolyl)ethanone] | 5.70
COc1ccc2nccc(CCC3CCNCC3)c2c1 [Example 13, 6-METHOXY-4-[2-(4-PIPERIDYL)-ETHYL]-QUINOLINE] | 5.15
Clc1ccc(-c2cc(CCC3CCNCC3)c3ccccc3n2)cc1 [Example 17, 2-(4-chloro-phenyl)-4-[2-(4-piperidyl)-ethyl]-quinoline] | 6.40
COc1ccc(-c2cc(C(=O)CC3CCNCC3)c3ccccc3n2)cc1 [Example 9, 1-[2-(4-methoxy-phenyl)-4-quinolyl]-2-(4-piperidyl)ethanone] | 5.30
Cc1ccc(-c2cc(C(=O)CC3CCNCC3)c3ccccc3n2)cc1 [Example 8, 1-[2-(4-METHYL-PHENYL)-4-QUINOLYL]-2-(4-PIPERIDYL)-ETHANONE] | 5.80
c1ccc(CCN2CCC(CCc3cc(-c4ccccc4)nc4ccccc34)CC2)cc1 [Example 22, 4-{2-[1-(2-phenyl-ethyl)-4-piperidyl]-ethyl}-2-phenyl-quinoline] | 6.30
c1ccc(-c2cc(CCC3CCNCC3)c3ccccc3n2)cc1 [Example 16, 2-phenyl-4-[2-(4-piperidyl)-ethyl]-quinoline] | 6.70
O=C(CC1CCNCC1)c1cc(-c2ccc(Cl)cc2)nc2ccccc12 [Example 7, 1-[2-(4-CHLORO-PHENYL)-4-QUINOLYL]-2-(4-PIPERIDYL)-ETHANONE] | 5.35
C=C[C@H]1CNCC[C@H]1CC(=O)c1ccnc2ccc(OC)cc12 [Example 3, 2-[3(R)-ethenyl-4(S)-piperidyl]-1-(6-methoxy-4-quinolyl)-ethanone] | 4.80

System: ventricular arhythmia caused by aconitine
Experiment: Aconitine test on the rat (antiarhythmic activity)
Assay type: in vivo
Settings: iv
Protocol: The antiarhythmic activity of the compounds of the present invention has been shown with the help of the aconitine test on the rat.
The principle of the technique rests on the induction time of the ventricular arhythmia caused by aconitine which slowly perfused in rats. An antiarhythmic substance retards the appearance of the arhythmia and the delay is proportional to the activity of the molecule.
Groups of 5 male rats are used. An individual anaesthesia is carried out (10% urethane: 1 g/kg/ip) to permit a catheterisation of the vein of the penis. The electrocardiogram is recorded. At the time T=0 the substance studied is injected in the form of an aqueous solution, at the rate of 2.5 ml of solution per kg in 30 seconds. At the time T=90 seconds, that is 1 minute after the end of the injection, the aconitine is perfused at the rate of 20 μg per minute until the appearance of supraventricular extra systoles. The time of perfusion of the aconitine is noted.
The results are expressed by an ED50 which is the dose in mg/kg increasing by 50% the time of perfusion of the aconitine in comparison with the perfusion time of aconitine for the control animals.

Structure (SMILES) | ED50
C=C[C@H]1CNCC[C@H]1CCc1ccnc2ccc(OC)cc12 [Example 14, 6-METHOXY-4-{2-[3(R)-ETHENYL-4(R)-PIPERIDYL]-ETHYL}-QUINOLINE] | 5 mg/kg
C=C[C@@H]1CNCC[C@H]1CCc1ccnc2ccc(OC)cc12 [Example 26, 6-methoxy-4-{2-[3(S)-ethenyl-4(R)-piperidyl]-ethyl}-quinoline] | 2.6 mg/kg
c1ccc(-c2cc(CCC3CCNCC3)c3ccccc3n2)cc1 [Example 16, 2-phenyl-4-[2-(4-piperidyl)-ethyl]-quinoline] | 1.3 mg/kg

Target: cerebral receiving sites of the benzodiazepines
Experiment: not given
Settings: 3H Diazepam; constant used in the formula for Ki; read-out: KD, constant of affinity; cited from earlier work

Structure (SMILES) | pKd
CN1C(=O)CN=C(c2ccccc2)c2cc(Cl)ccc21 [^3 H Diazepam] | 8.56
